Measured values from patent US7473697B2, “2-Oxo-piperidinyl- and 2-oxo-azepanyl alkanoic acid derivatives for the treatment of epilepsy and other neurological disorders” (UCB S.A., priority 2001, dated 2009).
Where two headings read alike, the source gives them in different places.

Experiments:
[1] = target: T1, Levetiracetam Binding Site (LBS) (Rattus norvegicus, UniProt Q02563); test: Competitive binding to levetiracetam binding site (LBS), radioligand [3H]-2-[4-(3-azidophenyl)-2-oxo-1-pyrrolidinyl]butanamide, cerebral cortex membranes
T1 construct: from tissue; host or cells: rat cerebral cortex crude membranes (male Sprague-Dawley)
T1 sequence (Q02563 whole entry): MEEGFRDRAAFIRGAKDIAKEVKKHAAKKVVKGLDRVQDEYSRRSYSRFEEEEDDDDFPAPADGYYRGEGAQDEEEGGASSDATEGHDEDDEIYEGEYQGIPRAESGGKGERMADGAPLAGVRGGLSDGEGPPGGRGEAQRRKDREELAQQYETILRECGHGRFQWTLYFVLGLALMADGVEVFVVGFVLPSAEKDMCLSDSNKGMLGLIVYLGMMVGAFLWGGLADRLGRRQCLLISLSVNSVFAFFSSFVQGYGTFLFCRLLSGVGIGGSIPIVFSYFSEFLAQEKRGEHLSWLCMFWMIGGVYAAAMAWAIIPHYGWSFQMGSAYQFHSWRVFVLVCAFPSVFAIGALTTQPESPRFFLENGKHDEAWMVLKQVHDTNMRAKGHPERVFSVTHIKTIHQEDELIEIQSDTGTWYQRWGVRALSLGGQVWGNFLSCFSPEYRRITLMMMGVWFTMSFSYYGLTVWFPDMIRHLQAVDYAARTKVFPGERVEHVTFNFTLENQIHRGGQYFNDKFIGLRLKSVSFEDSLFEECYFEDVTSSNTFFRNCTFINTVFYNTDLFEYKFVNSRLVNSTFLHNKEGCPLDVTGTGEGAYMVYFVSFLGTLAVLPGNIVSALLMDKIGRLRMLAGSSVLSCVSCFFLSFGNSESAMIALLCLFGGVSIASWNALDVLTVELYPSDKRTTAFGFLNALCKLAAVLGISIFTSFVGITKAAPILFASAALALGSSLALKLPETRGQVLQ
Description: The inhibition constant (Ki) of a compound is determined in competitive binding experiments by measuring the binding of a single concentration of a radioactive ligand at equilibrium with various concentrations of the unlabeled test substance. The concentration of the test substance inhibiting 50% of the specific binding of the radioligand is called the IC50. The equilibrium dissociation constant Ki is proportional to the IC50 and is calculated using the equation of Cheng and Prusoff (Cheng Y. et al., Biochem. Pharmacol. (1972), 22, 3099-3108).
The concentration range usually encompasses 6 log units with variable steps (0.3 to 1 log). Assays are performed in mono- or duplicate, each Ki determination is performed on two different samples of test substance. Cerebral cortex from 200-250 g male Sprague-Dawley rats were homogenised using a Potter S homogeniser (10 strokes at 1,000 rpm; Braun, Germany) in 20 mmol/l Tris-HCl (pH 7.4), 250 mmol/l sucrose (buffer A); all operations were performed at 4° C. The homogenate was centrifuged at 30,000 g for 15 min. The crude membrane pellet obtained was resuspended in 50 mmol/1 Tris-HCl (pH 7.4), (buffer B) and incubated 15 min at 37° C., centrifuged at 30,000 g for 15 min and washed twice with the same buffer. The final pellet was resuspended in buffer A at a protein concentration ranging from 15 to 25 mg/ml and stored in liquid nitrogen.
Membranes (150-200 μg of protein/assay) are incubated at 4° C. for 120 min in 0.5 ml of a 50 mmol/l Tris-HCl buffer (pH 7.4) containing 2 mmol/l MgCl2, 1 to 2.10^−9 mol/l of [^3H]-2-[4-(3-azidophenyl)-2-oxo-1-pyrrolidinyl]butanamide (levetiracetam analog, a tritiated radioligand currently used for the labelling of LBS), and increasing concentrations of the test substance. The non specific binding (NSB) is defined as the residual binding observed in the presence of a concentration of reference substance (e.g. 10^−3 mol/l levetiracetam) that binds essentially all the receptors. Membrane-bound and free radioligands are separated by rapid filtration through glass fiber filters (equivalent to Whatman GF/C or GF/B; VEL, Belgium) pre-soaked in 0.1% polyethyleneimine and 10^−3 mol/l levetiracetam to reduce non specific binding. Samples and filters are rinsed by at least 6 ml of 50 mmol/l Tris-HCl (pH 7.4) buffer. […] The radioactivity trapped onto the filters is counted by liquid scintillation in a β-counter (Tri-Carb 1900 or TopCount 9206, Camberra Packard, Belgium, or any other equivalent counter). Data analysis is perfomed by a computerized non linear curve fitting method using a set of equations describing several binding models assuming populations of independent non-interacting receptors which obey to the law of mass.

[2] = tested on: sound-susceptible mice (audiogenic seizures, clonic convulsions); test: Audiogenic seizure test in sound-susceptible mice; type: in vivo; conditions: for ED50: Mus musculus
Description: The objective of this test is to evaluate the anticonvulsant potency of a compound in sound-susceptible mice, a genetic animal model with reflex seizures. In this model of primary generalised epilepsy, seizures are evoked without electrical or chemical stimulation and the seizure types are, at least in part, similar in their clinical phenomenology to seizures occurring in man (Löscher W. & Schmidt D., Epilepsy Res. (1998), 2, 145-181: Buchhalter J. R , Epilepsia (1993), 34, S31-S41).
Male or female genetically sound-sensitive mice (14-28 g; N=10), derived from a DBA strain originally selected by Dr. Lehmann of the Laboratory of Acoustic Physiology (Paris) and bred in the UCB Pharma Sector husbandry unit since 1978, were used. The experimental design consisted of several groups, one group receiving the vehicle control and the other groups different doses of the test-compound. The compounds were administered intraperitoneally 60 minutes before the induction of audiogenic seizures.
For testing, the animals were placed in small cages, one mouse per cage, in a sound-attenuated chamber. After a period of orientation of 30 seconds, the acoustic stimulus (90 dB, 10-20 kHz) was delivered for 30 seconds via loudspeakers positioned above each cage. During this interval, the mice were observed and the presence of the 3 phases of the seizure activity namely wild running, clonic and tonic convulsions, was recorded. The proportion of mice protected against wild running, clonic and tonic convulsions, respectively, was calculated.
For active compounds, an ED50 value, i.e. the dose (expressed in moles per kg of test animal) producing 50% protection relative to the control group, together with 95% confidence limits, was calculated using a Probit Analysis (SAS/STAT® Software, version 6.09, PROBIT procedure) of the proportions of protected mice for each of the 3 phases of the seizure activity.
In tables I-A and I-B the ED50 value (=AUD CC) for the inhibition of Clonic Convulsions in the Audiogenic seizure test are given. This test is a good animal model for the screening of anticonvulsant and/or antiepileptic compounds.

[3] = 7-ring compounds, rat cerebral cortex membranes
[4] = 7-ring compounds, intraperitoneally 60 minutes before induction, inactive = inactive at 1.0E−03
[5] = 6-ring compounds, rat cerebral cortex membranes
[6] = 6-ring compounds, intraperitoneally 60 minutes before induction, inactive = inactive at 1.0E−03

## CCC(C(N)=O)N1CCC(CI)CCC1=O (single isomer, unassigned) [Compound 17, 2-[5-(iodomethyl)-2-oxo-1-azepanyl]butanamide]
[1]; [3]
  Ki: > 3160 nM

## CCC(C(N)=O)N1CCC(CI)CCC1=O (single isomer, unassigned) [Compound 18, 2-[5-(iodomethyl)-2-oxo-1-azepanyl]butanamide]
[1]; [3]
  Ki: 31.6 to 316 nM
[2]; [4]
  AUD CC (ED50 for inhibition of Clonic Convulsions in the Audiogenic seizure test): 0.00013 mol/kg

## CCC(C(N)=O)N1CCC(CI)CCC1=O (single isomer, unassigned) [Compound 19, 2-[5-(iodomethyl)-2-oxo-1-azepanyl]butanamide]
[1]; [3]
  Ki: > 3160 nM
[2]; [4]
  AUD CC (ED50 for inhibition of Clonic Convulsions in the Audiogenic seizure test): Inactive

## CCC(C(N)=O)N1CCC(CI)CCC1=O (single isomer, unassigned) [Compound 20, 2-[5-(iodomethyl)-2-oxo-1-azepanyl]butanamide]
[1]; [3]
  Ki: 316 to 3160 nM
[2]; [4]
  AUD CC (ED50 for inhibition of Clonic Convulsions in the Audiogenic seizure test): 0.00056 mol/kg

## CC[C@@H](C(N)=O)N1CC(CI)CCC1=O (stereo partly drawn) [Compound 5, (2S)-2-[5-(iodomethyl)-2-oxo-1-piperidinyl]butanamide]
[1]; [5]
  Ki: 316 to 3160 nM
[2]; ip, read-out: AUD CC (ED50 for inhibition of Clonic Convulsions in the Audiogenic seizure test), 6-ring compounds, intraperitoneally 60 minutes before induction, inactive = inactive at 1.0E−03
  ED50: 160 µmol/kg

## CC[C@@H](C(N)=O)N1CC(CI)CCC1=O (stereo partly drawn) [Compound 6, (2S)-2-[5-(iodomethyl)-2-oxo-1-piperidinyl]butanamide]
[1]; [5]
  Ki: 31.6 to 316 nM
[2]; [6]
  AUD CC (ED50 for inhibition of Clonic Convulsions in the Audiogenic seizure test): 0.0002 mol/kg

## CC[C@@H](C(N)=O)N1CC(CN=[N+]=[N-])CCC1=O (stereo partly drawn) [Compound 7, (2S)-2-[5-(azidomethyl)-2-oxo-1-piperidinyl]butanamide]
[1]; [5]
  Ki: 31.6 to 316 nM
[2]; ip
  AUD CC (ED50 for inhibition of Clonic Convulsions in the Audiogenic seizure test): 0.00012 mol/kg

## CC[C@@H](C(N)=O)N1CC(CN=[N+]=[N-])CCC1=O (stereo partly drawn) [Compound 8, (2S)-2-[5-(azidomethyl)-2-oxo-1-piperidinyl]butanamide]
[1]; [5]
  Ki: 316 to 3160 nM
[2]; ip
  AUD CC (ED50 for inhibition of Clonic Convulsions in the Audiogenic seizure test): 0.00028 mol/kg

## CCC(C(N)=O)N1CC(c2ccccc2)CCC1=O (stereo not shown) [Compound 9, 2-(2-oxo-5-phenyl-1-piperidinyl)butanamide]
[2]; ip
  AUD CC (ED50 for inhibition of Clonic Convulsions in the Audiogenic seizure test): 0.00028 mol/kg

## CCC(C(N)=O)N1CC(c2ccccc2)CCC1=O (stereo not shown) [Compound 10, 2-(2-oxo-5-phenyl-1-piperidinyl)butanamide]
[2]; ip
  AUD CC (ED50 for inhibition of Clonic Convulsions in the Audiogenic seizure test): Inactive

## CCC(C(N)=O)N1CC(c2ccccc2)CCC1=O (stereo not shown) [Compound 11, 2-(2-oxo-5-phenyl-1-piperidinyl)butanamide]
[1]; [5]
  Ki: 31.6 to 316 nM
[2]; ip
  AUD CC (ED50 for inhibition of Clonic Convulsions in the Audiogenic seizure test): 7e-05 mol/kg

## CCC(C(N)=O)N1CC(c2ccccc2)CCC1=O (stereo not shown) [Compound 12, 2-(2-oxo-5-phenyl-1-piperidinyl)butanamide]
[2]; ip
  AUD CC (ED50 for inhibition of Clonic Convulsions in the Audiogenic seizure test): Inactive

## CC[C@@H](C(N)=O)N1CCC(CI)CC1=O (stereo partly drawn) [Compound 13, (2S)-2-[4-(iodomethyl)-2-oxo-1-piperidinyl]butanamide]
[1]; [5]
  Ki: 31.6 to 316 nM
[2]; [6]
  AUD CC (ED50 for inhibition of Clonic Convulsions in the Audiogenic seizure test): 0.00011 mol/kg

## CC[C@H](C(N)=O)N1CCC(CI)CC1=O (stereo partly drawn) [Compound 14, (2R)-2-[4-(iodomethyl)-2-oxo-1-piperidinyl]butanamide]
[2]; [6]
  AUD CC (ED50 for inhibition of Clonic Convulsions in the Audiogenic seizure test): Inactive

## CC[C@@H](C(N)=O)N1CCC(CI)CC1=O (stereo partly drawn) [Compound 15, (2S)-2-[4-(iodomethyl)-2-oxo-1-piperidinyl]butanamide]
[1]; [5]
  PKi: +++ (+++ = 6.5 ≦ pKi < 7.5)
[2]; [6]
  AUD CC (ED50 for inhibition of Clonic Convulsions in the Audiogenic seizure test): 0.00025 mol/kg

## CC[C@H](C(N)=O)N1CCC(CI)CC1=O (stereo partly drawn) [Compound 16, (2R)-2-[4-(iodomethyl)-2-oxo-1-piperidinyl]butanamide]
[2]; [6]
  AUD CC (ED50 for inhibition of Clonic Convulsions in the Audiogenic seizure test): Inactive

## CC[C@@H](C(N)=O)N1CCCC1=O [levetiracetam, (S)-(−)-α-ethyl-2-oxo-1-pyrrolidineacetamide, reference compound]
[1]; reference
  Ki: 794 nM
[2]; reference compound, clonic convulsions, audiogenic seizure test, read-out: ED50 CC
  ED50: 180 µmol/kg
